# Reference: PubChem BioAssay (NCI)
#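 The compound was tested at five concentrations on cells cultured in 96-well plates, with a 48-hour exposure period. GI50: concentration for 50% inhibition of growth. TGI: total growth inhibition.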
# How the values were obtained:
# Assay in all cases: DTP human tumour cell line panel, 48 h
# [1] = tested on: 786-0 renal
# [2] = tested on: A498 renal
# [3] = tested on: A549 NSCLC
# [4] = tested on: ACHN renal
# [5] = tested on: BT-549 breast
# [6] = tested on: CAKI-1 renal
# [7] = tested on: CCRF-CEM leukemia
# [8] = tested on: COLO 205 colon
# [9] = tested on: DU-145 prostate
# [10] = tested on: EKVX NSCLC
# [11] = tested on: HCC-2998 colon
# [12] = tested on: HCT-116 colon
# [13] = tested on: HCT-15 colon
# [14] = tested on: HL-60(TB) leukemia
# [15] = tested on: HOP-62 NSCLC
# [16] = tested on: HOP-92 NSCLC
# [17] = tested on: HS 578T breast
# [18] = tested on: HT29 colon
# [19] = tested on: IGROV1 ovarian
# [20] = tested on: K-562 leukemia
# [21] = tested on: KM12 colon
# [22] = tested on: LOX IMVI melanoma
# [23] = tested on: M14 melanoma
# [24] = tested on: MALME-3M melanoma
# [25] = tested on: MCF7 breast
# [26] = tested on: MDA-MB-231 breast
# [27] = tested on: MDA-MB-435
# [28] = tested on: MOLT-4 leukemia
# [29] = tested on: NCI-H226 lung
# [30] = tested on: NCI-H23 lung
# [31] = tested on: NCI-H460 lung
# [32] = tested on: NCI-H522 lung
# [33] = tested on: NCI/ADR-RES ovarian
# [34] = tested on: OVCAR-3 ovarian
# [35] = tested on: OVCAR-4 ovarian
# [36] = tested on: OVCAR-5 ovarian
# [37] = tested on: OVCAR-8 ovarian
# [38] = tested on: PC-3 prostate
# [39] = tested on: RPMI-8226 leukemia
# [40] = tested on: RXF 393 renal
# [41] = tested on: SF-268 CNS
# [42] = tested on: SF-295 CNS
# [43] = tested on: SF-539 CNS
# [44] = tested on: SK-MEL-2 melanoma
# [45] = tested on: SK-MEL-28 melanoma
# [46] = tested on: SK-MEL-5 melanoma
# [47] = tested on: SK-OV-3 ovarian
# [48] = tested on: SN12C renal
# [49] = tested on: SNB-19 CNS
# [50] = tested on: SNB-75 CNS
# [51] = tested on: SR leukemia
# [52] = tested on: SW-620 colon
# [53] = tested on: T-47D breast
# [54] = tested on: TK-10 renal
# [55] = tested on: U251 CNS
# [56] = tested on: UACC-257 melanoma
# [57] = tested on: UACC-62 melanoma
# [58] = tested on: UO-31 renal
compound,measurement,setting,value
CCC(=C(c1ccc(OCCN2CCCCCC2)cc1)c1ccc(OCCN2CCCCCC2)cc1)c1ccc(Cl)cc1,GI50,[1],578 nM
same,TGI,[1],1180 nM
same,GI50,[2],4880 nM
same,TGI,[2],9720 nM
same,GI50,[3],1110 nM
same,TGI,[3],4210 nM
same,GI50,[4],1550 nM
same,TGI,[4],5790 nM
same,GI50,[5],3380 nM
same,TGI,[5],7520 nM
same,GI50,[6],1000 nM
same,TGI,[6],4490 nM
same,GI50,[7],657 nM
same,TGI,[7],1790 nM
same,GI50,[8],586 nM
same,TGI,[8],1210 nM
same,GI50,[9],1360 nM
same,TGI,[9],5020 nM
same,GI50,[10],3520 nM
same,TGI,[10],8010 nM
same,GI50,[11],553 nM
same,TGI,[11],1130 nM
same,GI50,[12],582 nM
same,TGI,[12],1360 nM
same,GI50,[13],631 nM
same,TGI,[13],1450 nM
same,GI50,[14],683 nM
same,TGI,[14],1600 nM
same,GI50,[15],2640 nM
same,TGI,[15],7580 nM
same,GI50,[16],1340 nM
same,TGI,[16],6070 nM
same,GI50,[17],727 nM
same,TGI,[17],1870 nM
same,GI50,[18],652 nM
same,TGI,[18],1410 nM
same,GI50,[19],1350 nM
same,TGI,[19],5210 nM
same,GI50,[20],424 nM
same,TGI,[20],1030 nM
same,GI50,[21],1060 nM
same,TGI,[21],3600 nM
same,GI50,[22],502 nM
same,TGI,[22],1010 nM
same,GI50,[23],639 nM
same,TGI,[23],1300 nM
same,GI50,[24],576 nM
same,TGI,[24],1270 nM
same,GI50,[25],91.6 nM
same,TGI,[25],785 nM
same,GI50,[26],2060 nM
same,TGI,[26],7760 nM
same,GI50,[27],644 nM
same,TGI,[27],1360 nM
same,GI50,[28],685 nM
same,TGI,[28],1740 nM
same,GI50,[29],4480 nM
same,TGI,[29],9560 nM
same,GI50,[30],3670 nM
same,TGI,[30],8190 nM
same,GI50,[31],645 nM
same,TGI,[31],1250 nM
same,GI50,[32],3540 nM
same,TGI,[32],8210 nM
same,GI50,[33],1930 nM
same,TGI,[33],6520 nM
same,GI50,[34],947 nM
same,TGI,[34],3010 nM
same,GI50,[35],3900 nM
same,TGI,[35],8710 nM
same,GI50,[36],3730 nM
same,TGI,[36],8250 nM
same,GI50,[37],4280 nM
same,TGI,[37],9410 nM
same,GI50,[38],1700 nM
same,TGI,[38],6140 nM
same,GI50,[39],749 nM
same,TGI,[39],1640 nM
same,GI50,[40],754 nM
same,TGI,[40],2250 nM
same,GI50,[41],2330 nM
same,TGI,[41],7470 nM
same,GI50,[42],644 nM
same,TGI,[42],1310 nM
same,GI50,[43],643 nM
same,TGI,[43],1370 nM
same,GI50,[44],3960 nM
same,TGI,[44],8630 nM
same,GI50,[45],623 nM
same,TGI,[45],1200 nM
same,GI50,[46],722 nM
same,TGI,[46],1730 nM
same,GI50,[47],4230 nM
same,TGI,[47],8590 nM
same,GI50,[48],3440 nM
same,TGI,[48],8580 nM
same,GI50,[49],833 nM
same,TGI,[49],2340 nM
same,GI50,[50],1970 nM
same,TGI,[50],6850 nM
same,GI50,[51],585 nM
same,TGI,[51],1340 nM
same,GI50,[52],555 nM
same,TGI,[52],1210 nM
same,GI50,[53],649 nM
same,TGI,[53],5310 nM
same,GI50,[54],4370 nM
same,TGI,[54],9000 nM
same,GI50,[55],597 nM
same,TGI,[55],1150 nM
same,GI50,[56],651 nM
same,TGI,[56],1400 nM
same,GI50,[57],664 nM
same,TGI,[57],1680 nM
same,GI50,[58],1720 nM
same,TGI,[58],6670 nM
